Results from ChEMBL document CHEMBL4610123, “Structure-Based Drug Discovery of N-((R)-3-(7-Methyl-1H-indazol-5-yl)-1-oxo-1-(((S)-1-oxo-3-(piperidin-4-yl)-1-(4-(pyridin-4-yl)piperazin-1-yl)propan-2-yl)amino)propan-2-yl)-2'-oxo-1',2'-dihydrospiro[piperidine-4,4'-pyrido[2,3-d][1,3]oxazine]-1-carboxamide (HTL22562): A Calcitonin Gene-Related …” (J Med Chem, 2020).
Values after ≈ are worked out from the molar mass of the structure shown.

Assays:
[1] = biological target: T1, AHR (aryl hydrocarbon receptor) (Homo sapiens, UniProt P35869); experiment: Transactivation of AHR (unknown origin) assessed as induction of CYP450 at 3 uM relative to control; assay type: ADME; conditions: read-out: FC
T1 sequence (P35869 whole entry): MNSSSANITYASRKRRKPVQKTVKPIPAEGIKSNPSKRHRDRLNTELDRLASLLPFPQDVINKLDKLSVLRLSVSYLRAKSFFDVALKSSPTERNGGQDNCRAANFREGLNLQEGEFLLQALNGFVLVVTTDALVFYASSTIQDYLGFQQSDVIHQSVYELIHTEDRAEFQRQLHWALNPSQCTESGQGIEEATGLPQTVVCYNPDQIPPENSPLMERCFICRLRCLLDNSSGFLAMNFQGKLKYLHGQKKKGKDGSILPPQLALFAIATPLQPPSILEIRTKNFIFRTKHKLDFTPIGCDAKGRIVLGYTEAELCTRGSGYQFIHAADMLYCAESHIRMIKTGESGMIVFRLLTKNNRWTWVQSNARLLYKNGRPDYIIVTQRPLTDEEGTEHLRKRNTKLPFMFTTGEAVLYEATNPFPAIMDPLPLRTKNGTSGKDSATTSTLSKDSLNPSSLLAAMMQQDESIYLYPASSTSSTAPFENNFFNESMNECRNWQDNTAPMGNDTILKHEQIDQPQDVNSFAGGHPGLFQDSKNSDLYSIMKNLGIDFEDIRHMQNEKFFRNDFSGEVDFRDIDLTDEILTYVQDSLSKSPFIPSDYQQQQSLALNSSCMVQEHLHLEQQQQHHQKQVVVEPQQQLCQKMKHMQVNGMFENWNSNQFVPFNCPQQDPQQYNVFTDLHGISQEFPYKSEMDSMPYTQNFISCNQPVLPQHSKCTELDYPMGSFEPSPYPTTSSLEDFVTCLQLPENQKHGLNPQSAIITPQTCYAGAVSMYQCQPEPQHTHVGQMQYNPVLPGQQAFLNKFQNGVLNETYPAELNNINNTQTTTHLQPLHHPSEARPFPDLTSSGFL

[2] = Lipophilicity, log D of the compound at pH 7.4; assay type: physicochemical; conditions: buffer
[3] = biological target: Calcitonin-gene-related peptide receptor; CALCRL/RAMP1 (Rattus norvegicus) (UniProt Q63118+Q9JJ74); experiment: Antagonist activity at rat CGRP receptor; assay type: protein-complex assay
[4] = biological target: Amylin receptor AMY1, CALCR/RAMP1 (Homo sapiens) (UniProt P30988+O60894); experiment: Antagonist activity at human amylin-1 receptor; assay type: protein-complex assay
[5] = Stability of the compound in pH 3 solution at 50 degC assessed as loss of purity after 1 week; assay type: physicochemical; conditions: read-out: Drug degradation
Homo sapiens [6] = species: Homo sapiens; experiment: Selectivity ratio of antagonist activity at adrenomedullin-1 receptor (unknown origin) to antagonist activity at human CGRP receptor in human SK-N-MC cells; assay type: cell-based
[7] = Solubility of the compound at pH 8.2 using amorphous form of sample; assay type: physicochemical; conditions: buffer
[8] = Tmax in cynomolgus monkey at 0.013 mg/kg, sc; assay type: ADME, organism-based, Macaca fascicularis; conditions: in vivo
[9] = Genotoxicity in Salmonella typhimurium TA98 by mini AMES test; assay type: toxicity; conditions: salmonella enterica subsp. enterica serovar typhimurium
[10] = Thermodynamic solubility of the compound at pH 7.4; assay type: physicochemical; conditions: buffer, read-out: Therm_solubility
[11] = AUC (infinity) in rat at 1 mg/kg, sc; assay type: ADME, organism-based; design: dose 1 mg/kg, route subcutaneous, time infinity; conditions: in vivo
[12] = biological target: Calcitonin-gene-related peptide receptor, CALCRL/RAMP1 (Homo sapiens, UniProt O60894+Q16602); experiment: Antagonist activity at human CGRP receptor in human SK-N-MC cells assessed as inhibition of CGRP-induced cAMP production preincubated for 30 mins followed by CGRP addition and measured after 30 mins by HTRF assay; assay type: functional, cell-based
[13] = Half life in cynomolgus monkey at 0.5 mg/kg, iv; assay type: ADME, organism-based, Macaca fascicularis; conditions: in vivo
[14] = Half life in cynomolgus monkey at 0.5 mg/kg, sc; assay type: ADME, organism-based, Macaca fascicularis; conditions: in vivo
[15] = Half life in rat at 1 mg/kg, sc; assay type: ADME, organism-based; conditions: in vivo
[16] = Protein binding in dog plasma by high-throughput dialysis method; assay type: ADME, cell-free, Canis lupus familiaris; conditions: read-out: PPB (converted)
Cytochrome P450 1A2 = biological target: T2, Cytochrome P450 1A2 (Homo sapiens, UniProt P05177); experiment: Inhibition of CYP1A2 (unknown origin); assay type: ADME
T2 sequence (P05177 whole entry): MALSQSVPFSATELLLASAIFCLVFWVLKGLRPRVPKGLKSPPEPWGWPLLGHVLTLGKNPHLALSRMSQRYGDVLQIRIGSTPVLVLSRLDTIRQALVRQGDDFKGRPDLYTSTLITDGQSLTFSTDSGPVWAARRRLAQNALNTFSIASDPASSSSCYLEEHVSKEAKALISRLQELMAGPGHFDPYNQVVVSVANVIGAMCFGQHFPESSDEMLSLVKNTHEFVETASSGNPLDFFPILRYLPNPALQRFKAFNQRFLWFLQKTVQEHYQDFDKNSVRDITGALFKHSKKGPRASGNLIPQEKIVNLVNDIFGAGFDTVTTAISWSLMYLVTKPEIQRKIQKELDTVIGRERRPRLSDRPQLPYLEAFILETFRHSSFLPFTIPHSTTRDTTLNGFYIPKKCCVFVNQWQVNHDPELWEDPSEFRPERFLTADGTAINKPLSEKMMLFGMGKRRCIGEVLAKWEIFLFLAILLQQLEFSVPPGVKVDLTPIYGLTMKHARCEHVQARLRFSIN

[17] = Genotoxicity in Salmonella typhimurium TA100 by mini AMES test; assay type: toxicity; conditions: salmonella enterica subsp. enterica serovar typhimurium
[18] = Genotoxicity in Salmonella typhimurium TA1535 by mini AMES test; assay type: toxicity; conditions: salmonella enterica subsp. enterica serovar typhimurium
[19] = Genotoxicity in Salmonella typhimurium TA1537 by mini AMES test; assay type: toxicity; conditions: salmonella enterica subsp. enterica serovar typhimurium
[20] = Clearance in cynomolgus monkey at 0.5 mg/kg, iv; assay type: ADME, organism-based, Macaca fascicularis; conditions: in vivo
[21] = AUC (infinity) in cynomolgus monkey at 0.5 mg/kg, sc; assay type: ADME, organism-based, Macaca fascicularis; design: dose 0.5 mg/kg, route subcutaneous, time infinity; conditions: in vivo
Homo sapiens [22] = species: Homo sapiens; experiment: Selectivity ratio of antagonist activity at amylin-1 receptor (unknown origin) to antagonist activity at human CGRP receptor in human SK-N-MC cells; assay type: cell-based
[23] = biological target: T3, Mas-related G-protein coupled receptor member X2 (Homo sapiens, UniProt Q96LB1); experiment: Agonist activity at MRGPX2 (unknown origin)
T3 sequence (Q96LB1 whole entry): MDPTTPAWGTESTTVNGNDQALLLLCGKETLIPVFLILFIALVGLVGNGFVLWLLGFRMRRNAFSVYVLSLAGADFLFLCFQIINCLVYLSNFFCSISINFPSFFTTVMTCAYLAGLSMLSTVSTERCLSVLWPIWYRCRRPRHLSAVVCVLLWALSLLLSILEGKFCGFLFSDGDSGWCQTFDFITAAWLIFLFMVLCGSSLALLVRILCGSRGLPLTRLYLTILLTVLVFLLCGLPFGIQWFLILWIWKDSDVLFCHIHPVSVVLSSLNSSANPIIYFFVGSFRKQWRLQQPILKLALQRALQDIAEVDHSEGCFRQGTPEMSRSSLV

[24] = Half life in rat hepatocytes; assay type: ADME, cell-based, Hepatocyte
Macaca fascicularis = species: Macaca fascicularis; experiment: Antagonist activity at cynomolgus monkey CGRP receptor
[25] = Clearance in dog at 0.5 mg/kg, iv; assay type: ADME, organism-based, Canis lupus familiaris; conditions: in vivo
[26] = Solubility of the compound at pH 4 using amorphous form of sample; assay type: physicochemical; conditions: buffer

With Cc1cc(C[C@@H](NC(=O)N2CCC3(CC2)OC(=O)Nc2ncccc23)C(=O)N[C@@H](CC2CCNCC2)C(=O)N2CCN(c3ccncc3)CC2)cc2cn[nH]c12 [HTL-0022562] the fold induction at 3 µM [1] was 1.4, the logD [2] was -0.4 and the pKb [3] was under 7. It also gave a pKb [4] of under 6.3, a degraded at 168 h [5] of 0.4% and a Selectivity ratio (Homo sapiens [6]) of over 8000. For the same compound, the solubility [7] was 9 mg/mL (≈ 11.8 mM), the Tmax [8] was 0.8 h and the Activity [9] was “Non-Toxic”. The solubility thermodynamic [10] was 2460 µM (≈ 1880 µg/mL), the AUC(0-inf) [11] was 1280 ng·h/mL and the pKb [12] was 10.2. The half-life [13] was 5.3 h, the half-life [14] was 3.6 h and the half-life [15] was 2.6 h. For the same compound, the fraction unbound [16] was 0.77, the IC50 (Cytochrome P450 1A2) was over 50100 nM and the Activity [17] was “Non-Toxic”. The Activity [18] was “Non-Toxic”, the Activity [19] was “Non-Toxic” and the clearance [20] was 2 mL/min/kg. It also gave an AUC(0-inf) [21] of 4210 ng·h/mL, a Selectivity ratio (Homo sapiens [22]) of over 8000 and an EC50 [23] of 900 nM. It also gave a half-life [24] of over 5 h, a pKb (Macaca fascicularis) of 10.5 and a clearance [25] of 10 mL/min/kg. For the same compound, the solubility [26] was 174 mg/mL (≈ 228 mM).
